Biological target: T1, 11-beta-hydroxysteroid dehydrogenase type 2 (Homo sapiens, UniProt P80365)
T1 sequence (P80365 whole entry): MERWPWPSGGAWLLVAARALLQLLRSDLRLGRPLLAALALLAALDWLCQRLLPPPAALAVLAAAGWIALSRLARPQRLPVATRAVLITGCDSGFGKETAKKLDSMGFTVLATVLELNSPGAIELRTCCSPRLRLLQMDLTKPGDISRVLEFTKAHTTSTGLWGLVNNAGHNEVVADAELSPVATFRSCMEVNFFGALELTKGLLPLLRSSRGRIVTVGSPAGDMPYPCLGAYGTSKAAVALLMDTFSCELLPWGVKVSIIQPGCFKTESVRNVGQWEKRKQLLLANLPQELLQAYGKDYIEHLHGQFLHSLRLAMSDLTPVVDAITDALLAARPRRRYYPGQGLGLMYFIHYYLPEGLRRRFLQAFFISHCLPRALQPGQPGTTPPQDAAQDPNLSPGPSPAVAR
Assay: HSD2 Activity
Method: Compounds were diluted in DMSO and serial dilutions prepared by titrating in DMSO. Compounds were then diluted into DMEM/F12. Transwell plates containing descending colon cultures were washed twice with DMEM/F12 and compound was added to the apical compartment. Cells were incubated with test compound for 30 minutes at 37° C., 5% CO2 to equilibrate across the cell membrane. A second compound plate was prepared in which the serially diluted compounds in DMSO were diluted into DMEM/F12 containing 40 nM cortisol. Following the 30 minute pre-incubation step, the apical media was aspirated and compounds diluted in DMEM/F12 with 40 nM cortisol were added to the apical side of the transwell. The plate was then incubated for four hours at 37° C., 5% CO2. Cortisol levels were measured using a cortisol HTRF assay kit as described by the manufacturer (Cisbio).

SMILES: CCCOCCOCCOCCOC(=O)O[C@H]1CC[C@@]2(C)[C@@H](CC[C@]3(C)[C@@H]2C(=O)C=C2[C@@H]4C[C@@](C)(C(=O)O)CC[C@]4(C)CC[C@]23C)[C@]1(C)C(=O)O [US20240209019, Compound noid16]
- IC50: > 10 µM

— BindingDB's records for patent US20240209019 (Ardelyx, 2024)
